Where “and” joins values, the source holds several entries; their conditions need not be identical. Identical values can stand only once. Like-named read-outs stand apart in the source and are kept apart here. One block for each compound: values may come before it.
What was measured:
[1] = format: in vitro ADME, cynomolgus monkey
Procedure: (§1) To investigate the stability of the conjugates in mouse, cyno monkey, dog, and human plasma, conjugate mCMD307 was incubated in plasma for 24 h (Table 13). At certain time intervals a sample of plasma was taken and plasma proteins precipitated. Samples were analyzed using LC-MS.

[2] = Plasma stability, 24 h, LC-MS, mouse plasma; format: in vitro ADME
Procedure: as §1

in vitro = in vitro ADME; details: dog, human, plasma
Procedure: as §1

[3] = Pharmacokinetics in CD-1 mouse, plasma concentration by LC-MS; format: in vivo
[4] = cynomolgus monkey, in vivo
[5] = dog, in vivo
normal mice = experiment: Oral glucose tolerance test 12 h after single SC dose in mice; format: in vivo, mouse; details: 10 nmol/kg S.C., 12 h before glucose
Procedure: Mice were fasted overnight prior to the oral glucose tolerance test (OGTT), and then dosed with peptide. After 12 h, 1 g of glucose solution per kg body weight was administered orally, and mouse tail blood glucose levels were measured before (0 min) and after glucose challenge for 90 minutes (with measurements at 15, 30, 60 and 90 minutes) (FIG. 16). The data were compared using the unpaired Student's t test. Where appropriate, data were compared using repeated measures or one-way analysis of variance, followed by the Student-Newman-Keuls post hoc test. Calculations for […] (mg/dL*min) were also analyzed and graphed in FIG. 16. […]. […].

wild-type mice = experiment: Oral glucose tolerance test 2 h and 96 h post injection in wild-type mice; format: in vivo, mouse; details: 10 nmol/kg s.c., vs vehicle
[6] = 1 mg/kg I.V., individual animals, 1 mg/kg
[7] = 1 mg/kg S.C., individual animals, 1 mg/kg

Area under the peak (%) [1]: 87% | Area under the peak (%) [2]: 53% | remaining at 24 h (in vitro): 92%
Compound: CC[C@H](C)[C@H](NC(=O)[C@H](CO)NC(=O)[C@H](Cc1ccc(O)cc1)NC(=O)[C@H](CC(=O)O)NC(=O)[C@H](CO)NC(=O)[C@@H](NC(=O)[C@H](Cc1ccccc1)NC(=O)[C@@H](NC(=O)CNC(=O)[C@H](CCC(=O)O)NC(=O)C(C)(C)NC(=O)[C@@H](N)Cc1ccc(O)cc1)[C@@H](C)O)[C@@H](C)O)C(=O)N[C@@H](Cc1ccc(O)cc1)C(=O)N[C@H]1CCCCNC(=O)CN(C(=O)CCNC(=O)CCOCCOCCOCCNC(=O)CCCCCCCCCCCCCCCCC(=O)O)CC(=O)NCCCC[C@@H](C(=O)N[C@@H](Cc2ccccc2)C(=O)N[C@H](C(=O)N[C@@H](CC(N)=O)C(=O)N[C@@H](Cc2c[nH]c3ccccc23)C(=O)N[C@@H](CC(C)C)C(=O)N[C@@H](CC(C)C)C(=O)N[C@@H](C)C(=O)NCC(=O)NCC(=O)N2CCC[C@H]2C(=O)N[C@@H](CO)C(=O)N[C@@H](CO)C(=O)NCC(=O)N[C@@H](C)C(=O)N2CCC[C@H]2C(=O)N2CCC[C@H]2C(=O)N2CCC[C@H]2C(=O)N[C@@H](CO)C(N)=O)C(C)C)NC(=O)C(C)(C)NC(=O)[C@H](C)NC(=O)[C@H](C)NC(=O)[C@H](CCC(N)=O)NC(=O)[C@H](CCCCN)NC(=O)[C@H](CC(=O)O)NC1=O [mCMD307, YAibEGT-FTSDY-SIYXD-KQAAAib-XFVNW-LLAGG-PSSGA-PPPS-NH2 (where each X is K)]

Compound: CC[C@H](C)[C@H](NC(=O)[C@H](CC(C)C)NC(=O)[C@H](Cc1c[nH]c2ccccc12)NC(=O)[C@@H]1CSCC(=O)NCCN(C(=O)CCC(=O)NCCOCCOCCC(=O)NCCOCCOCCC(=O)NCCCC[C@H](NC(=O)CCCCCCCCCCCCCCCCC(=O)O)C(=O)O)CCNC(=O)CSC[C@H](NC(=O)[C@H](CCCCN)NC(=O)[C@H](CC(=O)O)NC(=O)[C@H](CC(C)C)NC(=O)[C@H](Cc2ccc(O)cc2)NC(=O)[C@@H](NC(=O)[C@H](CO)NC(=O)[C@H](Cc2ccc(O)cc2)NC(=O)[C@H](CC(=O)O)NC(=O)[C@H](CO)NC(=O)[C@@H](NC(=O)[C@H](Cc2ccccc2)NC(=O)[C@@H](NC(=O)CNC(=O)[C@H](CCC(=O)O)NC(=O)C(C)(C)NC(=O)[C@@H](N)Cc2ccc(O)cc2)[C@@H](C)O)[C@@H](C)O)[C@@H](C)CC)C(=O)N[C@@H](C)C(=O)N[C@@H](C)C(=O)NC(C)(C)C(=O)N[C@@H](CCC(=O)O)C(=O)N[C@@H](Cc2ccccc2)C(=O)N[C@@H](C(C)C)C(=O)N1)C(=O)N[C@@H](C)C(=O)NCC(=O)NCC(=O)N1CCC[C@H]1C(=O)N[C@@H](CO)C(=O)N[C@@H](CO)C(=O)NCC(=O)N[C@@H](C)C(=O)N1CCC[C@H]1C(=O)N1CCC[C@H]1C(=O)N1CCC[C@H]1C(=O)N[C@@H](CO)C(N)=O [mCMZ371, YAibEGT-FTSDY-SIYLD-KXAAAib-EFVXW-LIAGG-PSSGA-PPPS-NH2 (where each X is C)]
AUC compared with mCMZ370 ([3]; 1 mg/kg I.V. or S.C.): significantly larger area under the curve | half-life compared with mCMZ370 ([3]; 1 mg/kg I.V. or S.C.): longer half-life | Tlast ([3]; 1 mg/kg I.V., individual animals): 72 h | AUC—%Extrap—pred [3, 6]: 0.75% | Cl—pred [3, 6]: 2.76 mL/h/kg and 2.46 mL/h/kg | Tlast ([3]; 1 mg/kg S.C., individual animals): 72 h | Cl—Fpred [3, 7]: 7.2 mL/h/kg and 4.8 mL/h/kg and 14.4 mL/h/kg | V—F—pred [3, 7]: 0.06 L/kg and 0.12 L/kg and 0.08 L/kg | Vd ([3]; in vivo, iv, 1 mg/kg I.V., individual animals, read-out: Vss—pred): 0.054 L/kg | clearance ([3]; mouse, in vivo, iv, 1 mg/kg, 1 mg/kg I.V., individual animals, read-out: Cl—pred): 2.88 mL/h/kg | t1/2 in cynomolgus monkeys [4]: long t1/2 | Tlast ([4]; iv): 240 h | Tlast ([4]; sc): 240 h | t1/2 in dogs [5]: long t1/2 | Tlast ([5]; iv): 240 h | Tlast ([5]; sc): 240 h

Compound: Semaglutide
effects on glucose tolerance at 10 nmol/kg (normal mice): indistinguishable effects on glucose tolerance | glucose tolerance (OGTT) 96 h after administration (wild-type mice): did not exhibit any improvement over the vehicle

From patent US20250320252A1 (The Scripps Research Institute, priority 2021, published 2025)
